Assay results from US11584714B2 (priority 2018, dated 2023).
Counter-ions that a name gives are not always drawn. Like-named read-outs stand apart in the source and are kept apart here.

Assays:
Format in all cases: biochemical
MASP-2 = MASP-2 (Homo sapiens (Human), UniProt O00187); experiment: MASP-2 inhibition (Ki)
Thrombin = Thrombin (Homo sapiens (Human), UniProt P00734); experiment: Thrombin inhibition (Ki); details: read-out: Thrombin Ki
MASP-2 (CCP1-CCP2-SP) = MASP-2 (CCP1-CCP2-SP) (Homo sapiens (Human), UniProt O00187); experiment: biochemical; details: for MASP-2 vs. thrombin selectivity: selectivity for MASP-2 inhibition versus thrombin
mMASP-2 = mMASP-2 (Mus musculus (Mouse), UniProt Q91WP0); experiment: Enzymatic inhibition of mMASP-2
human α-thrombin = human α-thrombin (Homo sapiens (Human), UniProt P00734); experiment: Enzymatic assay for thrombin (Boc-VPR-AMC substrate)
Lectin Pathway = experiment: Lectin pathway activation assay in human serum (mannan-coated ELISA, C3c detection); details: 1% human serum

Sequence of mMASP-2 (Q91WP0 20-685): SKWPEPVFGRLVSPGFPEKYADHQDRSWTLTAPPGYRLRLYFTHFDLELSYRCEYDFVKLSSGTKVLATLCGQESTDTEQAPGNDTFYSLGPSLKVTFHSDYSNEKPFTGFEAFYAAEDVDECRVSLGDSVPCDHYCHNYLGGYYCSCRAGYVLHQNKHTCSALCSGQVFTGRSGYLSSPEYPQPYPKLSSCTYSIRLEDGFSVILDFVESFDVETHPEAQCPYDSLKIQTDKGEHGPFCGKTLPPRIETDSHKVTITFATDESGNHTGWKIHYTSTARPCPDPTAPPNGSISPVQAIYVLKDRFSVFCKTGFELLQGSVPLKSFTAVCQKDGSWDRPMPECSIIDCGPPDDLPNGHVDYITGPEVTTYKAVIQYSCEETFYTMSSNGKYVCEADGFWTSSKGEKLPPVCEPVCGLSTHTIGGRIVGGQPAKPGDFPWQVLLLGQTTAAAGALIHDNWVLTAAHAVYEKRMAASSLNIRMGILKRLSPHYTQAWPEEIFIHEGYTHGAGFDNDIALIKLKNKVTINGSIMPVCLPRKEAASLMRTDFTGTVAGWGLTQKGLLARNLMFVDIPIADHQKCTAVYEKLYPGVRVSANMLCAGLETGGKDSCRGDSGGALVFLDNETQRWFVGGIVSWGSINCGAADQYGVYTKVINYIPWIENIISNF
Sequence of MASP-2 (O00187 16-686): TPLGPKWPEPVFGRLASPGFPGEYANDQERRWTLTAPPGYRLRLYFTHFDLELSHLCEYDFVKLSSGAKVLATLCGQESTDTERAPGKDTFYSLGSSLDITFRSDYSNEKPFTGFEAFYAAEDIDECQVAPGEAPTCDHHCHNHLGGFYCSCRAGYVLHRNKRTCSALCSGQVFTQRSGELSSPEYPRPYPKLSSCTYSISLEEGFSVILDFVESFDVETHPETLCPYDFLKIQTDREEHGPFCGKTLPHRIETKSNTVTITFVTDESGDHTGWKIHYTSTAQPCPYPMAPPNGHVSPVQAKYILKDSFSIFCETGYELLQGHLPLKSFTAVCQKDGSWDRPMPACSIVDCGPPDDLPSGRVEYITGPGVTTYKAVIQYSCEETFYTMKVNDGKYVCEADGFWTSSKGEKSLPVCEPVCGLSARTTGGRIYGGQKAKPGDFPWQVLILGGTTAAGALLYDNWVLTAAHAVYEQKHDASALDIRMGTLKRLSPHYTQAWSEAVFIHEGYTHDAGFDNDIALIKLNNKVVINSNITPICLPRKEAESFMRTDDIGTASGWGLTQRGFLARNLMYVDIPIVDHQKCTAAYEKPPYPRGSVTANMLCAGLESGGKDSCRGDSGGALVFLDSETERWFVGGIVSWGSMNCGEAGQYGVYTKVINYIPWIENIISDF
Sequence of MASP-2 (CCP1-CCP2-SP) (O00187 445-686): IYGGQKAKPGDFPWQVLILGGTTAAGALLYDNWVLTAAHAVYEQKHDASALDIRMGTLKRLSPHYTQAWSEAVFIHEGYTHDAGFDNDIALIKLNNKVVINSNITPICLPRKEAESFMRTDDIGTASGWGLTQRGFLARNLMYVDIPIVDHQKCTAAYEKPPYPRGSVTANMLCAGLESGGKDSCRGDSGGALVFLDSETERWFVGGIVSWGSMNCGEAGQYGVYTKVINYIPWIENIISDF

Cc1ccccc1C1=N/C(=C\c2ccco2)C(=O)O1 [compound 1]
Ki (MASP-2): < 10000 nM
Ki (Thrombin): < 10000 nM

Cc1ccc(/C=C2\N=C(c3ccccc3F)OC2=O)o1 [compound 2]
Ki (MASP-2): < 10000 nM
Ki (Thrombin): 25000 to 100000 nM

COc1ccc(/C=C2\N=C(c3ccccc3OC)OC2=O)cc1OC [compound 3]
Ki (MASP-2): 25000 to 100000 nM
Ki (Thrombin): < 10000 nM

COc1ccccc1C1=N/C(=C\c2cccs2)C(=O)O1 [compound 5]
Ki (MASP-2): 10000 to 25000 nM

O=C1c2ccccc2C(=O)N1Oc1ccc(C(F)(F)F)cc1[N+](=O)[O-] [compound 35]
Ki (MASP-2): 25000 to 100000 nM

O=C(O)/C=C/C=C/c1ccco1 [compound 38]
Ki (MASP-2): 10000 to 25000 nM

C[C@H](NC(=O)[C@H]1C[C@H](Cc2ccccc2)CN1)C(=O)NCc1cnc2[nH]cc(Cl)c2c1 [compound 1334, (2R,4S)-4-Benzyl-N-((S)-1-(((3-chloro-1H-pyrrolo[2,3-b]pyridin-5-yl)methyl)amino)-1-oxopropan-2-yl)pyrrolidine-2-carboxamide Di-hydrochloride]
selectivity for MASP-2 over thrombin (MASP-2; MASP-2 vs thrombin): MASP-2 selective
Ki (MASP-2 (CCP1-CCP2-SP); read-out: MASP-2 Ki): < 500 nM
MASP-2 vs. thrombin selectivity (MASP-2 (CCP1-CCP2-SP)): −− (<1.0-fold)
Ki (mMASP-2; read-out: mMASP-2 Ki): < 500 nM
Ki (human α-thrombin; read-out: Thrombin Ki): < 0.5 µM

Cc1nc(N)ccc1CNC(=O)[C@H](C)NC(=O)[C@H]1C[C@@H](c2ccccc2)CCN1C [compound 1441, (2R,4S)—N—((S)-1-(((6-Amino-2-methylpyridin-3-yl)methyl)amino)-1-oxopropan-2-yl)-1-methyl-4-phenylpiperidine-2-carboxamide]
Ki (MASP-2 (CCP1-CCP2-SP); read-out: MASP-2 Ki): < 500 nM
Ki (mMASP-2; read-out: mMASP-2 Ki): < 500 nM
Ki (human α-thrombin; read-out: Thrombin Ki): > 25 µM
IC50 (Lectin Pathway): 50 to 500 nM

Cc1nc(N)ccc1CNC(=O)[C@H](C)NC(=O)[C@H]1C[C@H](Cc2ccc(Cl)cc2Cl)CN1 [compound 1443, (2R,4S)—N—((S)-1-(((6-Amino-2-methylpyridin-3-yl)methyl)amino)-1-oxopropan-2-yl)-4-(2,4-dichlorobenzyl)pyrrolidine-2-carboxamide Dihydrochloride]
Ki (MASP-2 (CCP1-CCP2-SP); read-out: MASP-2 Ki): < 500 nM
MASP-2 vs. thrombin selectivity (MASP-2 (CCP1-CCP2-SP)): *** (≥25 to <100-fold)
Ki (mMASP-2; read-out: mMASP-2 Ki): < 500 nM
Ki (human α-thrombin; Thrombin Ki (μM)): 0.5 to 2.5 µM
IC50 (Lectin Pathway): 500 to 5000 nM

Cc1nc(N)ccc1CNC(=O)[C@H](C)NC(=O)[C@H]1C[C@H](Cc2cc(Cl)ccc2Cl)CN1 [compound 1444, (2R,4S)—N—((S)-1-(((6-Amino-2-methylpyridin-3-yl)methyl)amino)-1-oxopropan-2-yl)-4-(2,5-dichlorobenzyl)pyrrolidine-2-carboxamide Dihydrochloride]
Ki (MASP-2 (CCP1-CCP2-SP); read-out: MASP-2 Ki): < 500 nM
MASP-2 vs. thrombin selectivity (MASP-2 (CCP1-CCP2-SP)): ** (≥5.0 to <25-fold)
Ki (mMASP-2; read-out: mMASP-2 Ki): < 500 nM
Ki (human α-thrombin; read-out: Thrombin Ki): < 0.5 µM
IC50 (Lectin Pathway): 500 to 5000 nM

Cc1nc(N)ccc1CNC(=O)[C@H](C)NC(=O)[C@H]1C[C@H](Oc2ccc(Br)cc2)CN1 [compound 1445, (2R,4S)—N—((S)-1-(((6-Amino-2-methylpyridin-3-yl)methyl)amino)-1-oxopropan-2-yl)-4-(4-bromophenoxy)pyrrolidine-2-carboxamide Dihydrochloride]
Ki (MASP-2 (CCP1-CCP2-SP); read-out: MASP-2 Ki): < 500 nM
MASP-2 vs. thrombin selectivity (MASP-2 (CCP1-CCP2-SP)): **** (≥100-fold)
Ki (mMASP-2; read-out: mMASP-2 Ki): 500 to 2500 nM
Ki (human α-thrombin; read-out: Thrombin Ki): > 25 µM
IC50 (Lectin Pathway): 5000 to 50000 nM

Cc1nc(N)ccc1CNC(=O)[C@H](C)NC(=O)[C@H]1C[C@H](Oc2ccccc2)CN1 [compound 1446, (2R,4S)—N—((S)-1-(((6-Amino-2-methylpyridin-3-yl)methyl)amino)-1-oxopropan-2-yl)-4-phenoxypyrrolidine-2-carboxamide]
Ki (MASP-2 (CCP1-CCP2-SP); read-out: MASP-2 Ki): < 500 nM
MASP-2 vs. thrombin selectivity (MASP-2 (CCP1-CCP2-SP)): **** (≥100-fold)
Ki (mMASP-2; read-out: mMASP-2 Ki): 500 to 2500 nM
Ki (human α-thrombin; read-out: Thrombin Ki): > 25 µM
IC50 (Lectin Pathway): 5000 to 50000 nM

Cc1nc(N)ccc1CNC(=O)[C@H](C)NC(=O)[C@H]1C[C@H](Cc2ccc(F)cc2)CN1 [compound 1447, (2R,4S)—N—((S)-1-(((6-Amino-2-methylpyridin-3-yl)methyl)amino)-1-oxopropan-2-yl)-4-(4-fluorobenzyl)pyrrolidine-2-carboxamide Di-trifluoroacetate salt]
Ki (MASP-2 (CCP1-CCP2-SP); read-out: MASP-2 Ki): < 500 nM
MASP-2 vs. thrombin selectivity (MASP-2 (CCP1-CCP2-SP)): **** (≥100-fold)
Ki (mMASP-2; read-out: mMASP-2 Ki): < 500 nM
Ki (human α-thrombin; Thrombin Ki (μM)): 2.5 to 10 µM
IC50 (Lectin Pathway): 500 to 5000 nM

Cc1nc(N)ccc1CNC(=O)[C@H](C)NC(=O)[C@H]1C[C@H](Cc2ccc3nsnc3c2)CN1 [compound 1449, (2R,4S)—N—((S)-1-(((6-Amino-2-methylpyridin-3-yl)methyl)amino)-1-oxopropan-2-yl)-4-(benzo[c][1,2,5]thiadiazol-5-ylmethyl)pyrrolidine-2-carboxamide Di-trifluoroacetate salt]
Ki (MASP-2 (CCP1-CCP2-SP); read-out: MASP-2 Ki): < 500 nM
MASP-2 vs. thrombin selectivity (MASP-2 (CCP1-CCP2-SP)): **** (≥100-fold)
Ki (mMASP-2; read-out: mMASP-2 Ki): < 500 nM
Ki (human α-thrombin; Thrombin Ki (μM)): 2.5 to 10 µM
IC50 (Lectin Pathway): 500 to 5000 nM

Cc1nc(N)ccc1CNC(=O)[C@H](C)NC(=O)[C@H]1C[C@H](Cc2ccc(Cl)c(Br)c2)CN1 [compound 1451, (2R,4S)—N—((S)-1-(((6-Amino-2-methylpyridin-3-yl)methyl)amino)-1-oxopropan-2-yl)-4-(3-bromo-4-chlorobenzyl)pyrrolidine-2-carboxamide Di-trifluoroacetate salt]
Ki (MASP-2 (CCP1-CCP2-SP); read-out: MASP-2 Ki): < 500 nM
MASP-2 vs. thrombin selectivity (MASP-2 (CCP1-CCP2-SP)): **** (≥100-fold)
Ki (mMASP-2; read-out: mMASP-2 Ki): < 500 nM
Ki (human α-thrombin; Thrombin Ki (μM)): 10 to 25 µM
IC50 (Lectin Pathway): 500 to 5000 nM

Cc1nc(N)ccc1CNC(=O)[C@H](C)NC(=O)[C@H]1C[C@H](Cc2cccc(Br)c2)CN1 [compound 1452, (2R,4S)—N—((S)-1-(((6-Amino-2-methylpyridin-3-yl)methyl)amino)-1-oxopropan-2-yl)-4-(3-bromobenzyl)pyrrolidine-2-carboxamide Dihydrochloride]
Ki (MASP-2 (CCP1-CCP2-SP); read-out: MASP-2 Ki): < 500 nM
MASP-2 vs. thrombin selectivity (MASP-2 (CCP1-CCP2-SP)): **** (≥100-fold)
Ki (mMASP-2; read-out: mMASP-2 Ki): < 500 nM
Ki (human α-thrombin; Thrombin Ki (μM)): 0.5 to 2.5 µM
IC50 (Lectin Pathway): 500 to 5000 nM

COc1ccc2cc(C[C@@H]3CN[C@@H](C(=O)N[C@@H](C)C(=O)NCc4ccc(N)nc4C)C3)ccc2c1 [compound 1453, (2R,4S)—N—((S)-1-(((6-Amino-2-methylpyridin-3-yl)methyl)amino)-1-oxopropan-2-yl)-4-((6-methoxynaphthalen-2-yl)methyl)pyrrolidine-2-carboxamide Dihydrochloride]
Ki (MASP-2 (CCP1-CCP2-SP); read-out: MASP-2 Ki): < 500 nM
MASP-2 vs. thrombin selectivity (MASP-2 (CCP1-CCP2-SP)): **** (≥100-fold)
Ki (mMASP-2; read-out: mMASP-2 Ki): < 500 nM
Ki (human α-thrombin; Thrombin Ki (μM)): 10 to 25 µM
IC50 (Lectin Pathway): < 50 nM

Cc1nc(N)ccc1CNC(=O)[C@H](C)NC(=O)[C@H]1C[C@H](Cc2ccc(Cl)s2)CN1 [compound 1454, (2R,4R)—N—((S)-1-(((6-Amino-2-methylpyridin-3-yl)methyl)amino)-1-oxopropan-2-yl)-4-((5-chlorothiophen-2-yl)methyl)pyrrolidine-2-carboxamide Dihydrochloride]
Ki (MASP-2 (CCP1-CCP2-SP); read-out: MASP-2 Ki): < 500 nM
MASP-2 vs. thrombin selectivity (MASP-2 (CCP1-CCP2-SP)): *** (≥25 to <100-fold)
Ki (mMASP-2; read-out: mMASP-2 Ki): < 500 nM
Ki (human α-thrombin; Thrombin Ki (μM)): 0.5 to 2.5 µM
IC50 (Lectin Pathway): 500 to 5000 nM

Cc1cc(Cl)cc(CNC(=O)[C@H](C)NC(=O)[C@H]2C[C@H](Cc3ccc(Cl)s3)CN2)c1O [compound 1456, (2R,4R)—N—((S)-1-((5-Chloro-2-hydroxy-3-methylbenzyl)amino)-1-oxopropan-2-yl)-4-((5-chlorothiophen-2-yl)methyl)pyrrolidine-2-carboxamide Dihydrochloride]
Ki (MASP-2 (CCP1-CCP2-SP); read-out: MASP-2 Ki): < 500 nM
Ki (mMASP-2; read-out: mMASP-2 Ki): 500 to 2500 nM
Ki (human α-thrombin; read-out: Thrombin Ki): > 25 µM
IC50 (Lectin Pathway): 5000 to 50000 nM

Cc1nc(N)ccc1CNC(=O)Cn1c(C)cnc(NCCc2ccccc2)c1=O [compound 1488]
Ki (MASP-2 (CCP1-CCP2-SP); read-out: MASP-2 Ki): < 500 nM
MASP-2 vs. thrombin selectivity (MASP-2 (CCP1-CCP2-SP)): −− (<1.0-fold)
Ki (mMASP-2; read-out: mMASP-2 Ki): 2500 to 10000 nM
Ki (human α-thrombin; read-out: Thrombin Ki): < 0.5 µM
IC50 (Lectin Pathway): 500 to 5000 nM

Cc1cnc(NCCc2ccccc2)c(=O)n1CC(=O)NCc1cnc2[nH]cc(Cl)c2c1 [compound 1490, N-((3-Chloro-1H-pyrrolo[2,3-b]pyridin-5-yl)methyl)-2-(6-methyl-2-oxo-3-(phenethylamino)pyrazin-1(2H)-yl)acetamide Acetate salt]
Ki (MASP-2 (CCP1-CCP2-SP); read-out: MASP-2 Ki): < 500 nM
MASP-2 vs. thrombin selectivity (MASP-2 (CCP1-CCP2-SP)): −− (<1.0-fold)
Ki (mMASP-2): 2500 to 10000 nM
Ki (human α-thrombin; read-out: Thrombin Ki): < 0.5 µM
IC50 (Lectin Pathway): 5000 to 50000 nM

Cc1cnc(NCCc2ccccc2)c(=O)n1CC(=O)NCc1ccc2c(N)nccc2c1 [compound 1491, N-((1-Aminoisoquinolin-6-yl)methyl)-2-(6-methyl-2-oxo-3-(phenethylamino)pyrazin-1(2H)-yl)acetamide Trifluoroacetamide salt]
Ki (MASP-2 (CCP1-CCP2-SP)): 500 to 2500 nM
MASP-2 vs. thrombin selectivity (MASP-2 (CCP1-CCP2-SP)): −− (<1.0-fold)
Ki (mMASP-2; read-out: mMASP-2 Ki): < 500 nM
Ki (human α-thrombin; read-out: Thrombin Ki): < 0.5 µM
IC50 (Lectin Pathway): 5000 to 50000 nM

Cc1cnc(NCCc2ccccc2)c(=O)n1CC(=O)NCc1ccc2nc(N)[nH]c2c1 [compound 1492, N-((2-Amino-1H-benzo[d]imidazol-6-yl)methyl)-2-(6-methyl-2-oxo-3-(phenethylamino)pyrazin-1(2H)-yl)acetamide Trifluoroacetamide salt]
Ki (MASP-2 (CCP1-CCP2-SP); read-out: MASP-2 Ki): < 500 nM
MASP-2 vs. thrombin selectivity (MASP-2 (CCP1-CCP2-SP)): ** (≥5.0 to <25-fold)
Ki (mMASP-2; read-out: mMASP-2 Ki): < 500 nM
Ki (human α-thrombin; read-out: Thrombin Ki): < 0.5 µM
IC50 (Lectin Pathway): 50 to 500 nM
